Measurements published in patent publication US12139492B2 (Endotarget Inc., priority 2021, dated 2024).

Tests used:
Mino cells = assay: Antiproliferative effect, MTS cell viability assay, Mino cells; format: cell-based; conditions: Homo sapiens, MINO, Mino mantle cell lymphoma cells; read-out: IC50 (anti-proliferation) Mino cells
Procedure, shortened: (§1)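 MTS read-out, A490 of formazan from metabolically active cells; compound 0–10 μM (0, 0.001, 0.01, 0.1, 1, 10 μM), 72 h exposure.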

JeKo-1 cells = assay: Antiproliferative effect, MTS cell viability assay, JeKo-1 cells; format: cell-based; conditions: Homo sapiens; JeKo-1 mantle cell lymphoma cells; read-out: IC50 (anti-proliferation) JeKO-1 cells
Procedure, shortened: as §1

BTK [1] = target: T1, BTK (Homo sapiens, UniProt Q06187); assay: BTK degradation, DC50 and Dmax of Table 1 (cell line not given); format: cell-based; design: endogenous in cells; conditions: for DC50: concentration giving 50% reduction of BTK expression level
BTK [2] = target: T1, BTK; assay: Degradation of BTK protein in Namalwa cells (Western blot; DC50, Dmax); conditions: for DC50: cell line not given

T1 sequence (Q06187 whole entry): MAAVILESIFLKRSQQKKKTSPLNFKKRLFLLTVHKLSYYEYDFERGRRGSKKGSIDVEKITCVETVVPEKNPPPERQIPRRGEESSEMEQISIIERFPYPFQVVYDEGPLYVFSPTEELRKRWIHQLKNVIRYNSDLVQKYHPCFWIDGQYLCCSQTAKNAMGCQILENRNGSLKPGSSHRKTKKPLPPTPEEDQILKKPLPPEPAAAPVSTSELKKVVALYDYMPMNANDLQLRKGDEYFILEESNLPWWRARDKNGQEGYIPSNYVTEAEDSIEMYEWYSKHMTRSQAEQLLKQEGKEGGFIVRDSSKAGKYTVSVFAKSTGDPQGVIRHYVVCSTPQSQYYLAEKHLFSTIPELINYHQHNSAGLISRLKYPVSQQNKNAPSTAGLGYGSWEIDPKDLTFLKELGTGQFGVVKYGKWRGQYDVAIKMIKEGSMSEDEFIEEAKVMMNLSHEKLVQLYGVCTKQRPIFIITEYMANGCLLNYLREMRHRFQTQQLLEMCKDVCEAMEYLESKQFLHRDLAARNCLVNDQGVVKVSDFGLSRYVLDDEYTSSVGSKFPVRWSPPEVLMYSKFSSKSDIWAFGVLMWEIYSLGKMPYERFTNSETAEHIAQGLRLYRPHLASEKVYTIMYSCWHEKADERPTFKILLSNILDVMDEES

| Dmax (BTK [1]) [%] | DC50 (BTK [1]) [nM] | DC50 (BTK [2]; read-out: DC50 (BTK degradation), concentration giving 50% reduction of BTK expression level) [nM] | Dmax (BTK [2]; read-out: Dmax (BTK degradation)) [%] | Dmax (BTK [2]) [%] | DC50 (BTK [2]; BTK degradation) [nM] | SMILES | IC50 (Mino cells) [nM] | IC50 (JeKo-1 cells) [nM] |
| --- | --- | --- | --- | --- | --- | --- | --- | --- |
| > 50 | > 50 | – | – | – | – | Nc1ncnc2c1c(-c1ccc(Oc3ccccc3)cc1)nn2[C@@H]1CCCN(C2CCN(C(=O)N3CCN(CCCC4CCN(c5ccc6c(c5)CN(C5CCC(=O)NC5=O)C6=O)CC4)CC3)CC2)C1 (stereo partly drawn) [Compound 190, 3-(5-(4-(3-(4-((R)-3-(4-amino-3-(4-phenoxyphenyl)-1H-pyrazolo[3,4-d]pyrimidin-1-yl)-[1,4′-bipiperidine]-1′-carbonyl)piperazin-1-yl)propyl)piperidin-1-yl)-1-oxoisoindolin-2-yl)piperidine-2,6-dione] | > 10000 | > 10000 |
| > 90 | 10 to 50 | – | – | – | – | Nc1ncnc2c1c(-c1ccc(Oc3ccccc3)cc1)nn2[C@@H]1CCCN(C2CCN(C(=O)N3CCC(CN4CCN(c5ccc6c(c5)CN(C5CCC(=O)NC5=O)C6=O)CC4)CC3)CC2)C1 (stereo partly drawn) [Compound 170, 3-(5-(4-((1-((R)-3-(4-amino-3-(4-phenoxyphenyl)-1H-pyrazolo(3,4-d)pyrimidin-1-yl)-(1,4′-bipiperidine)-1′-carbonyl)piperidin-4-yl)methyl)piperazin-1-yl)-1-oxoisoindolin-2-yl)piperidine-2,6-dione] | 1000 to 10000 | 1000 to 10000 |
| > 90 | 10 to 50 | – | – | – | – | Nc1ncnc2c1c(-c1ccc(Oc3ccccc3)cc1)nn2[C@@H]1CCCN(C(=O)N2CCN(CC3CCN(c4ccc5c(c4)CN(C4CCC(=O)NC4=O)C5=O)CC3)CC2)C1 (stereo partly drawn) [Compound 58, 3-(5-(4-((4-((R)-3-(4-amino-3-(4-phenoxyphenyl)-1H-pyrazolo[3,4-d]pyrimidin-1-yl)piperidine-1-carbonyl)piperazin-1-yl)methyl)piperidin-1-yl)-1-oxoisoindolin-2-yl)piperidine-2,6-dione] | < 1000 | < 1000 |
| > 90 | – | – | – | – | – | Nc1ncnc2c1c(-c1ccc(Oc3ccccc3)cc1)nn2C1CCN(CC2CCN(C(=O)N3CCC(CCN4CCN(c5ccc6c(c5)C(=O)N(C5CCC(=O)NC5=O)C6=O)CC4)CC3)CC2)CC1 (stereo not drawn) [Compound 43, 5-(4-(2-(1-(4-((4-(4-amino-3-(4-phenoxyphenyl)-1H-pyrazolo[3,4-d]pyrimidin-1-yl)piperidin-1-yl)methyl)piperidine-1-carbonyl)piperidin-4-yl)ethyl)piperazin-1-yl)-2-(2,6-dioxopiperidin-3-yl)isoindoline-1,3-dione] | 1000 to 10000 | 1000 to 10000 |
| – | – | 10 to 50 | > 90 | – | – | NC1=NC=NC2C1C(c1ccc(Oc3ccccc3)cc1)=NN2[C@@H]1CCCN(C(=O)N2CC(C3CN(c4ccc5c(c4)C(=O)N(C4CCC(=O)NC4=O)C5=O)C3)C2)C1 (stereo partly drawn) [Compound 497, 5-(1′-((3R)-3-(4-amino-3-(4-phenoxyphenyl)-3a,7a-dihydro-1H-pyrazolo[3,4-d]pyrimidin-1-yl)piperidine-1-carbonyl)-[3,3′-biazetidin]-1-yl)-2-(2,6-dioxopiperidin-3-yl)isoindoline-1,3-dione] | < 1000 | < 1000 |
| – | – | – | – | > 90 | < 10 | NC(=O)c1c(-c2ccc(Oc3ccccc3)cc2)nn2c1NCC[C@H]2C1CCN(C2CCN(C(=O)N3CCN(C4CCN(c5ccc6c(c5)CN(C5CCC(=O)NC5=O)C6=O)CC4)CC3)CC2)CC1 (stereo partly drawn) [Compound 386, (7S)-7-(1′-(4-(1-(2-(2,6-dioxopiperidin-3-yl)-1-oxoisoindolin-5-yl)piperidin-4-yl)piperazine-1-carbonyl)-[1,4′-bipiperidin]-4-yl)-2-(4-phenoxyphenyl)-4,5,6,7-tetrahydropyrazolo[1,5-a]pyrimidine-3-carboxamide] | < 1000 | < 1000 |
| – | – | – | – | > 90 | 10 to 50 | NC(=O)c1c(-c2ccc(Oc3ccccc3)cc2)nn2c1NCCC2C1CCN(CC2CCN(C(=O)N3CCN(CC4CCN(c5ccc6c(c5)C(=O)N(C5CCC(=O)NC5=O)C6=O)CC4)CC3)CC2)CC1 (stereo not drawn) [Compound 371] | < 1000 | < 1000 |
